In US6441011B1, “Combined preparation consisting of 2-methylthiazolidine-2,4-dicarboxylic acid and paracetamol” (priority 1997, dated 2002):
Marks after values point to notes of the source that are not given here.

Columns and labels:
[1] = system: mice; experiment: Time-dosage dependency: GSH in hepatic tissue after CP injection; assay type: in vivo; settings: for GSH % of control / GSH: mice
[2] = system: mice; experiment: Paracetamol liver damage and pre-treatment with CP: indicator substances in hepatic tissue and blood; assay type: in vivo; settings: for Cysteine / Cystine / Glycogen / Non-protein SH / Oxygen radicals / Protein SH / Total SH / AlAT / AspAT: CP 1.2 mmol/kg pre-treatment, 12 h later paracetamol 600 mg/kg i.p. or control solution; for Cysteine / Cystine / Glycogen / Non-protein SH / Oxygen radicals / Protein SH / Total SH: tissue after another 3 h; for AlAT / AspAT: blood serum, blood after another 3 h; for concentration of oxygen radicals / concentration of sulfhydryl groups / free cysteines in the hepatic tissue / glycogen in the hepatic tissue / enzymes in the blood serum released from the liver (AlAT, AspT): paracetamol 600 mg/kg single dose, CP pre-treatment 1.2 mmol/kg; for enzymes in the blood serum released from the liver (AlAT, AspT): within 3 hours
Procedure: (§1) The mice were pre-treated using 1.2 mmol CP/kg, and 12 hours later they were treated with the control solution or 600 mg of paracetamol/kg of body weight i.p. Hepatic tissue and blood were extracted after another 3 hours, and the indicator substances were measured.

[3] = system: mice; experiment: Toxic effects of CP under in-vivo conditions; settings: up to a dose of 2.4 mmol CP/kg of body weight
Procedure: as §1

[4] = system: Hep G2 cells; experiment: Cytotoxicity of paracetamol and protective action of CP on permanent hepatic cell line; assay type: cell-based
Procedure: The cells were kept for 10 days in a medium that contained paracetamol (1 mM). […] The concentrations of the indicator substances were measured at the end of the period of exposure (Table 3). […] It is therefore recommended to choose higher AA concentrations for later experiments.

[5] = CP 1.2 mmol/kg, 8 h after injection
[6] = CP 2.4 mmol/kg, 4 h after injection
[7] = Hep G2 cells, 10 days, AA 1 mM, simultaneous CP 2 mM
[8] = Hep G2 cells, 10 days, AA 1 mM, CP 2 mM

SMILES	Cysteine [2]	Cystine [2]	Glycogen [2]	Non-protein SH [2]	Oxygen radicals [2]	Protein SH [2]	Total SH [2]	AlAT [2]	AspAT [2]	concentration of oxygen radicals [2]	concentration of sulfhydryl groups [2]	free cysteines in the hepatic tissue [2]	glycogen in the hepatic tissue [2]	enzymes in the blood serum released from the liver (AlAT, AspT) [2]	L-cysteine and cystine concentrations [4, 7]	free radicals [4, 7]	also measured
CC1(C(=O)O)NC(C(=O)O)CS1 (centres unmarked) [CP, 2-methyl-thiazolidine-2,4-dicarboxylic acid]	0.240^a ± μmol/g wet weight of the liver	0.020^a ± μmol/g wet weight of the liver	12.59 ± 0.21 mg/g wet weight of the liver	3.81^a ± μmol/g wet weight of the liver	0.120^a ± μmol/g wet weight of the liver	13.27^a ± μmol/g wet weight of the liver	17.08^a ± μmol/g wet weight of the liver	20 units/l	199 units/l	significantly reduced	reduced the decrease	significantly increased	significantly increased	suppressed the increase	more than compensated	prevented	increase of glutathione concentration in the hepatic tissue ([1]; after 12 hours, 1.2 or 2.4 mmol/kg of body weight): could still be detected; GSH % of control ([1]; CP 1.2 mmol/kg, 1 h after injection): 117.5 % of control; GSH % of control ([1]; CP 1.2 mmol/kg, 4 h after injection): 87.2 % of control; GSH [1, 5]: 6.48 ± 0.67 μmol/g of wet weight; GSH % of control [1, 5]: 108.5 % of control; GSH % of control ([1]; CP 1.2 mmol/kg, 12 h after injection): 122.0 % of control; GSH % of control ([1]; CP 2.4 mmol/kg, 1 h after injection): 127.6 % of control; GSH [1, 6]: 5.76 ± 0.42 μmol/g of wet weight; GSH % of control [1, 6]: 90.3 % of control; GSH % of control ([1]; CP 2.4 mmol/kg, 8 h after injection): 112.0 % of control; GSH % of control ([1]; CP 2.4 mmol/kg, 12 h after injection): 154.5 % of control; glutathione concentration in the hepatic tissue ([1]; within one hour post application of 1.2 or 2.4 mmol/kg of body weight): rose considerably; toxic effects [3]: no toxic effects; effect against high concentrations of paracetamol in the hepatic cell model ([4]; Hep G2 cell culture): protective effect
CC(=O)Nc1ccc(O)cc1 [Paracetamol, paracetamol]	0.062^a ± μmol/g wet weight of the liver	0.025^a ± μmol/g wet weight of the liver	8.45^a ± mg/g wet weight of the liver	0.22^a ± μmol/g wet weight of the liver	0.317^a ± μmol/g wet weight of the liver	12.34 ± 0.20 μmol/g wet weight of the liver	12.56^a ± μmol/g wet weight of the liver	682 units/l	855 units/l	increased	dropped dramatically	dropped dramatically	dropped dramatically	enormous increase	dropped slightly	increase	concentrations of the other indicator substances ([4]; Hep G2 cells, 10 days, AA 1 mM): remained unchanged; Cysteine [4, 8]: 3.68 nmol/mg Protein; Cystine [4, 8]: 0.130 nmol/mg Protein; GSH [4, 8]: 14.9 nmol/mg Protein; Glutamine synthetase [4, 8]: 0.41 units/mg protein; LDH [4, 8]: 1.88 units/mg protein; NPSH [4, 8]: 18.90 nmol/mg Protein; free radicals [4, 8]: 0.210 nmol/mg Protein; number of cells [4, 8]: 6 × 10^8 cells; vital cells [4, 8]: 94% vital
